Where two headings read alike, the source gives them in different places.
Tests used:
[1] = trials 5A and 5B: time course of action and adverse events; assay type: in vivo, human
[2] = system: mice with normal glycemic index; test: glucose-induced high blood sugar in mice; assay type: in vivo
mice = test: blood sugar increase induced by alloxan and streptozotocin in mice; assay type: in vivo
[3] = system: animals having a normal level of blood sugar; test: blood sugar and insulin in animals having a normal level of blood sugar; assay type: in vivo
type 2 diabetic patients = test: trial 5A: Beinaglutide with glipizide in type 2 diabetic patients; assay type: in vivo, human
[4] = system: patients with type 2 diabetes; test: trial 5C: Beinaglutide with metformin, multicenter, type 2 diabetes; assay type: in vivo, human
From the text: Note: Covariance analysis was used for comparison between groups. The dependent variable was the change in body weight relative to baseline, and the covariate was baseline. Body weight change from baseline=post-treatment−baseline. Data from 5C test data.

diabetes patients = conditions: 0.2 mg TID for 12 weeks; temporary
[5] = system: male diet induced obesity (DIO) mice; conditions: for % of Gastric Remains / Gross Weight of Stomach / Propelling Distance of Carbon Powder / Propelling Rate of Carbon Powder: X ± SE
Description: Five minutes after subcutaneous injection, gavage was conducted using 5% carbon powder suspension (in 2% carboxymethylcellulose solution) at 1.5 ml/100 g body weight. […] The stomach was wiped dry with filter paper and weighed for the gross weight of the stomach. Then the content of the stomach was removed and the stomach was weighed for the net weight. The respective distance from the pyloric sphincter to the front of carbon powder suspension and to the distal end of the large intestine was measured. • propelling distance of carbon powder in the intestine (cm)=distance from pylorus to the proximal end of carbon powder; • mass of carbon powder gavaged=concentration of carbon powder suspension×volume; • propelling rate of carbon powder (%)=propelling distance of carbon powder in the intestine (cm)/entire length of intestine (cm)×100%; • rate of gastric remains (%)=(gross weight of stomach−net weight of stomach)/mass of carbon powder gavaged×100%.
The animals were fasted 29-33 hours before injection, and the animals were not given any water 5-7 hours before injection. Injections were made by subcutaneous administration to the neck, at 0.1 ml/100 g body weight.

[6] = Test group (Beinaglutide+metformin), 84 days (12 weeks) from baseline
[7] = Test group, 248 subjects, 84 days from baseline
[8] = Test group, 84 days from baseline

CC[C@H](C)[C@H](NC(=O)[C@H](Cc1ccccc1)NC(=O)[C@H](CCC(=O)O)NC(=O)[C@H](CCCCN)NC(=O)[C@H](C)NC(=O)[C@H](C)NC(=O)[C@H](CCC(N)=O)NC(=O)CNC(=O)[C@H](CCC(=O)O)NC(=O)[C@H](CC(C)C)NC(=O)[C@H](Cc1ccc(O)cc1)NC(=O)[C@H](CO)NC(=O)[C@H](CO)NC(=O)[C@@H](NC(=O)[C@H](CC(=O)O)NC(=O)[C@H](CO)NC(=O)[C@@H](NC(=O)[C@H](Cc1ccccc1)NC(=O)[C@@H](NC(=O)CNC(=O)[C@H](CCC(=O)O)NC(=O)[C@H](C)NC(=O)[C@@H](N)Cc1cnc[nH]1)[C@@H](C)O)[C@@H](C)O)C(C)C)C(=O)N[C@@H](C)C(=O)N[C@@H](Cc1c[nH]c2ccccc12)C(=O)N[C@@H](CC(C)C)C(=O)N[C@H](C(=O)N[C@@H](CCCCN)C(=O)NCC(=O)N[C@@H](CCCNC(=N)N)C(=O)O)C(C)C [Beinaglutide]
adverse events ([1]; Beinaglutide clinical trials): mild to moderate nausea and vomiting | peak time ([1]; after administration (injection), type 2 diabetic patients): 20 min | half-life ([1]; human, in vivo, other: injection, type 2 diabetic patients, read-out: half-life (duration of action)): ~15 min | effect on glucose-induced high blood sugar [2]: lower glucose-induced high blood sugar | effect on increase of blood sugar induced by alloxan and streptozotocin (mice): reduce the increase of blood sugar induced by alloxan and streptozotocin | effect on blood sugar and blood insulin level [3]: neither decreased blood sugar nor increased blood insulin level | BMI (type 2 diabetic patients; 0.1 mg three times a day with glipizide, treatment for 2 weeks, FAS n = 24, before treatment 25.51 ± 2.59): 25.53 ± 2.63 kg/m^2 | BMI (type 2 diabetic patients; 0.1 mg three times a day with glipizide, treatment for 4 weeks, FAS n = 24, before treatment 25.51 ± 2.59): 25.40 ± 2.64 kg/m^2 | BMI (type 2 diabetic patients; 0.1 mg three times a day with glipizide, treatment for 8 weeks, FAS n = 24, before treatment 25.51 ± 2.59): 25.25 ± 2.57 kg/m^2 | BMI (type 2 diabetic patients; 0.1 mg three times a day with glipizide, treatment for 12 weeks, FAS n = 24, before treatment 25.51 ± 2.59): 25.20 ± 2.60 kg/m^2 | BMI (type 2 diabetic patients; 0.15 mg three times a day with glipizide, treatment for 2 weeks, FAS n = 24, before treatment 25.66 ± 2.64): 25.63 ± 2.57 kg/m^2 | BMI (type 2 diabetic patients; 0.15 mg three times a day with glipizide, treatment for 4 weeks, FAS n = 24, before treatment 25.66 ± 2.64): 25.45 ± 2.63 kg/m^2 | BMI (type 2 diabetic patients; 0.15 mg three times a day with glipizide, treatment for 8 weeks, FAS n = 24, before treatment 25.66 ± 2.64): 25.19 ± 2.48 kg/m^2 | BMI (type 2 diabetic patients; 0.15 mg three times a day with glipizide, treatment for 12 weeks, FAS n = 24, before treatment 25.66 ± 2.64): 25.11 ± 2.60 kg/m^2 | BMI (type 2 diabetic patients; 0.2 mg three times a day with glipizide, treatment for 2 weeks, FAS n = 23, before treatment 26.71 ± 4.17): 26.44 ± 4.14 kg/m^2 | BMI (type 2 diabetic patients; 0.2 mg three times a day with glipizide, treatment for 4 weeks, FAS n = 23, before treatment 26.71 ± 4.17): 26.52 ± 3.95 kg/m^2 | BMI (type 2 diabetic patients; 0.2 mg three times a day with glipizide, treatment for 8 weeks, FAS n = 23, before treatment 26.71 ± 4.17): 26.09 ± 4.04 kg/m^2 | BMI (type 2 diabetic patients; 0.2 mg three times a day with glipizide, treatment for 12 weeks, FAS n = 23, before treatment 26.71 ± 4.17): 25.92 ± 3.95 kg/m^2 | Week 12 BMI ([4]; 0.2 mg three times a day with metformin, Baseline BMI 25.81): 25.09 kg/m^2 | BMI Change ([4]; 0.2 mg three times a day with metformin, baseline to week 12, 0 mg group −0.40): −0.72 | difference Test-Control group in body weight change, Corrected mean ([4]; 84 days after medication, covariance analysis, P 0.0075): −0.82 | change in body weight from baseline, median ([4]; Test group (0.2 mg three times a day + metformin), overweight and obese patients, ITT, 84 days after medication): -2.00 kg | change in body weight from baseline, Mean ± standard deviation ([4]; Test group (0.2 mg three times a day + metformin), overweight and obese patients, ITT, 84 days after medication, 248 subjects): -2.22 ± 2.55 kg | proportion of subjects with Weight loss ≥ 3% [4, 6]: (40.32) % | proportion of subjects with weight loss ≥5% [4, 6]: (20.97) % | number of subjects with Weight loss < 3% [4, 7]: 148 | number of subjects with Weight loss < 5% [4, 7]: 196 | number of subjects with Weight loss ≥ 3% [4, 7]: 100 | number of subjects with Weight loss ≥ 5% [4, 7]: 52 | proportion of subjects with Weight loss < 3% [4, 8]: (59.68) % | proportion of subjects with Weight loss < 5% [4, 8]: (79.03) % | most common side effects (diabetes patients): nausea and vomiting | human dose corresponding to effective dose ([5]; from DIO mice 15 μg/kg): 0.12 mg/day | effective dose (inhibition of stomach emptying), as low as ([5]; male DIO mice): 0.015 mg/kg | % of Gastric Remains ([5]; male DIO mice, 15 μg/kg): 58.92 ± 3.39% | Gross Weight of Stomach ([5]; male DIO mice, 15 μg/kg): 0.49 ± 0.02 g | Propelling Distance of Carbon Powder ([5]; male DIO mice, 15 μg/kg): 20.50 ± 1.89 cm | Propelling Rate of Carbon Powder ([5]; male DIO mice, 15 μg/kg): 47.34 ± 4.63% | % of Gastric Remains ([5]; male DIO mice, 20 μg/kg): 63.46 ± 9.45% | Gross Weight of Stomach ([5]; male DIO mice, 20 μg/kg): 0.50 ± 0.04 g | Propelling Distance of Carbon Powder ([5]; male DIO mice, 20 μg/kg): 14.21 ± 2.59 cm | Propelling Rate of Carbon Powder ([5]; male DIO mice, 20 μg/kg): 34.86 ± 6.72% | % of Gastric Remains ([5]; male DIO mice, 25 μg/kg): 62.69 ± 7.26% | Gross Weight of Stomach ([5]; male DIO mice, 25 μg/kg): 0.53 ± 0.03 g | Propelling Distance of Carbon Powder ([5]; male DIO mice, 25 μg/kg): 15.00 ± 2.45 cm | Propelling Rate of Carbon Powder ([5]; male DIO mice, 25 μg/kg): 35.25 ± 5.72% | % of Gastric Remains ([5]; male DIO mice, 50 μg/kg): 70.86 ± 7.41% | Gross Weight of Stomach ([5]; male DIO mice, 50 μg/kg): 0.55 ± 0.02 g | Propelling Distance of Carbon Powder ([5]; male DIO mice, 50 μg/kg): 10.00 ± 1.04 cm | Propelling Rate of Carbon Powder ([5]; male DIO mice, 50 μg/kg): 23.80 ± 2.41% | % of Gastric Remains ([5]; male DIO mice, 75 μg/kg): 78.34 ± 5.75% | Gross Weight of Stomach ([5]; male DIO mice, 75 μg/kg): 0.57 ± 0.03 g | Propelling Distance of Carbon Powder ([5]; male DIO mice, 75 μg/kg): 9.29 ± 1.23 cm | Propelling Rate of Carbon Powder ([5]; male DIO mice, 75 μg/kg): 21.51 ± 2.63% | % of Gastric Remains ([5]; male DIO mice, 100 μg/kg): 74.37 ± 6.06%

Reference: patent US20210052703A1 (SHANGHAI BENEMAE PHARMACEUTICAL CORPORATION, priority 2018, published 2021)
